This note sets out measurements from ChEMBL document CHEMBL1153424, “Discovery of 4-(benzylaminomethylene)isoquinoline-1,3-(2H,4H)-diones and 4-[(pyridylmethyl)aminomethylene]isoquinoline-1,3-(2H,4H)-diones as potent and selective inhibitors of the cyclin-dependent kinase 4” (J Med Chem, 2009).

In data set [1] the target is Cyclin-dependent kinase 2 (Homo sapiens, UniProt P24941). The data set can be described thus: Inhibition of CDK2/Cyclin E assessed as inhibition of retinoblastoma susceptibility gene product phosphorylation.
Data set [2] addresses Cyclin-dependent kinase 1/cyclin B1 (Homo sapiens, UniProt P06493+P14635). The data set can be described thus: (§1) Inhibition of CDK1/Cyclin B1 assessed as inhibition of retinoblastoma susceptibility gene product phosphorylation.
The target of data set [3] is Cyclin-dependent kinase 1/cyclin B1 (Homo sapiens, UniProt P06493). The description is as §1.
Sequence of Cyclin-dependent kinase 1/cyclin B1 (Homo sapiens, UniProt P06493) (P06493 whole entry): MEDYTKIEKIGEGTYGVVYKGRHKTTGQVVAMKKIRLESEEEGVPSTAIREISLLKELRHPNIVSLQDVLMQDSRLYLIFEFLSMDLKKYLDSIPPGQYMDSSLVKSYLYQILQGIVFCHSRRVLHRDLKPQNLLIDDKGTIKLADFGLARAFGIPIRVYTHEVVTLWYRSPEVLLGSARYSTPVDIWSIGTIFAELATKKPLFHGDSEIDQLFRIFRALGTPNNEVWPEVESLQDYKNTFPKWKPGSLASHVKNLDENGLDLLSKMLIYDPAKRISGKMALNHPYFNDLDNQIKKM
Sequence of Cyclin-dependent kinase 1/cyclin B1 (Homo sapiens, UniProt P06493) (P14635 whole entry, further chain): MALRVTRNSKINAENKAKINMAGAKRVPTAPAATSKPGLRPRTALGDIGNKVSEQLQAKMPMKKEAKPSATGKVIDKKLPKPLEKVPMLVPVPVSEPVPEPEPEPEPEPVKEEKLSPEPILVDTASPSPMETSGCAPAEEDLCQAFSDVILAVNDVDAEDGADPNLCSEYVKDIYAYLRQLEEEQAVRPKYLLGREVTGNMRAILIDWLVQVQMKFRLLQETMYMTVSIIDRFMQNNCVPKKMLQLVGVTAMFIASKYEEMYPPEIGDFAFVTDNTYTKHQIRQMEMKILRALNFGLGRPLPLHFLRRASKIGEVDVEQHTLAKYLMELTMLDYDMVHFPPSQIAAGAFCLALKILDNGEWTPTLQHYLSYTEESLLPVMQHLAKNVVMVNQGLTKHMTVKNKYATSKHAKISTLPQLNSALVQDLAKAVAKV
Data set [4] addresses Cyclin-dependent kinase 4/cyclin D1 (Homo sapiens, UniProt P11802). The data set can be described thus: (§2) Inhibition of CDK4/Cyclin D1 assessed as inhibition of retinoblastoma susceptibility gene product phosphorylation. The data set is classed as protein-complex assay.
Another data set relates to HCT-116. The data set can be described thus: cells. The following applies: Homo sapiens, HCT-116, 72 h.
Another data set deals with MCF7. In words: cells. The following applies: Homo sapiens, MCF7, 72 h.
Data set [5] in a line: Metabolic stability in Sprague-Dawley rat liver microsome assessed as half life after 15 mins using NADPH cofactor. The following applies: liver microsomes. The data set is classed as ADME. Background: Liver microsomes are vesicles of endoplasmic reticulum, rich in cytochrome P450 enzymes.
Data set [6] in a line: Metabolic stability in Sprague-Dawley rat liver microsome assessed as half life after 15 mins using NADPH/UDPGA cofactor. The following applies: liver microsomes. The data set is classed as ADME.
Data set [7] has as its target Cyclin-dependent kinase 4/cyclin D1 (Homo sapiens, UniProt P11802+P24385). The description is as §2. The data set is classed as protein-complex assay.
Data set [8] concerns the target Serine/threonine-protein kinase mTOR (Homo sapiens, UniProt P42345). The data set can be described thus: Inhibition of mTOR.
Data set [9] in a line: Inhibition of p70S6.
Data set [10] concerns the target Mitogen-activated protein kinase kinase kinase 8 (Homo sapiens, UniProt P41279). In words: Inhibition of Tpl2.
The target of data set [11] is Signal transducer and activator of transcription 3 (Homo sapiens, UniProt P40763). In words: Inhibition of STAT3.
Sequence of Signal transducer and activator of transcription 3 (P40763 whole entry): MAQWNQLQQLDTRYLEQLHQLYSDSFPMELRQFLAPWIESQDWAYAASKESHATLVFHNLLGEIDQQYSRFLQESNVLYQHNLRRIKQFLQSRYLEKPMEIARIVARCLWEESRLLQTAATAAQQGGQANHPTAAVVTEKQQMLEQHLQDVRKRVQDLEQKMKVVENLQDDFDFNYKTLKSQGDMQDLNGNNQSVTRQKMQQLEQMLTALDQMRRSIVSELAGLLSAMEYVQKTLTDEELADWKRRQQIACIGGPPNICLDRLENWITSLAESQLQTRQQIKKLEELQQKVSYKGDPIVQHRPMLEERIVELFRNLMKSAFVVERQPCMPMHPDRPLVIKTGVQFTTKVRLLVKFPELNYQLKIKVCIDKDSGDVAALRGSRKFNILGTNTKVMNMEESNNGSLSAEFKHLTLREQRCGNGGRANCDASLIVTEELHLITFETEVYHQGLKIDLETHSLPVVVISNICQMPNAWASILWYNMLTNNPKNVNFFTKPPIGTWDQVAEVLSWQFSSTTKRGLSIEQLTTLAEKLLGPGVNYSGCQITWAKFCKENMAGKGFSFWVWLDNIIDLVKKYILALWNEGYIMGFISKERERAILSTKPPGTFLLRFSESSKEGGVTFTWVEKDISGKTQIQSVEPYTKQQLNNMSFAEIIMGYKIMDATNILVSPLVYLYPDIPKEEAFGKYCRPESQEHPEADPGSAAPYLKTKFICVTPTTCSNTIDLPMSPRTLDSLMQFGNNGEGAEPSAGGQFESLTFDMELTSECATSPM
The target of data set [12] is MAP kinase-activated protein kinase 2 (Homo sapiens, UniProt P49137). In words: Inhibition of MK2.
Data set [13] concerns the target Protein kinase C theta type (Homo sapiens, UniProt Q04759). In words: Inhibition of PKCtheta.
Data set [14] concerns the target RAC-alpha serine/threonine-protein kinase (Homo sapiens, UniProt P31749). The data set can be described thus: Inhibition of AKT.
In data set [15] the target is Proto-oncogene tyrosine-protein kinase Src (Homo sapiens, UniProt P12931). In words: Inhibition of Src.
Sequence of Proto-oncogene tyrosine-protein kinase Src (P12931 2-536 limits assumed): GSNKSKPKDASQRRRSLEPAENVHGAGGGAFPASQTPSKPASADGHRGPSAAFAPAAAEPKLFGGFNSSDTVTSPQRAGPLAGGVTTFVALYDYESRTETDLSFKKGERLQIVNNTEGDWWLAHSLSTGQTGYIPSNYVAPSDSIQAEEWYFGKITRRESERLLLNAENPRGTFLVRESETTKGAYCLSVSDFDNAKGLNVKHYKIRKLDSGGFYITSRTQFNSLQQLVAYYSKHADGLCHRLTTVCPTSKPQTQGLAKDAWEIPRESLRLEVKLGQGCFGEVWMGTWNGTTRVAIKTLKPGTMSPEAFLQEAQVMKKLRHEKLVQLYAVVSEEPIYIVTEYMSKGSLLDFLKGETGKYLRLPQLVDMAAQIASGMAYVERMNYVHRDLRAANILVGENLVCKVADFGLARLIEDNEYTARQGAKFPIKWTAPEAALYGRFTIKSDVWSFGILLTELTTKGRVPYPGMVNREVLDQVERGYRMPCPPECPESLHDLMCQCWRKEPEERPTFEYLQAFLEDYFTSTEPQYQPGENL
In data set [16] the target is Tyrosine-protein kinase Lyn (Homo sapiens, UniProt P07948). The data set can be described thus: Inhibition of LYN.
Sequence of Tyrosine-protein kinase Lyn (P07948 whole entry): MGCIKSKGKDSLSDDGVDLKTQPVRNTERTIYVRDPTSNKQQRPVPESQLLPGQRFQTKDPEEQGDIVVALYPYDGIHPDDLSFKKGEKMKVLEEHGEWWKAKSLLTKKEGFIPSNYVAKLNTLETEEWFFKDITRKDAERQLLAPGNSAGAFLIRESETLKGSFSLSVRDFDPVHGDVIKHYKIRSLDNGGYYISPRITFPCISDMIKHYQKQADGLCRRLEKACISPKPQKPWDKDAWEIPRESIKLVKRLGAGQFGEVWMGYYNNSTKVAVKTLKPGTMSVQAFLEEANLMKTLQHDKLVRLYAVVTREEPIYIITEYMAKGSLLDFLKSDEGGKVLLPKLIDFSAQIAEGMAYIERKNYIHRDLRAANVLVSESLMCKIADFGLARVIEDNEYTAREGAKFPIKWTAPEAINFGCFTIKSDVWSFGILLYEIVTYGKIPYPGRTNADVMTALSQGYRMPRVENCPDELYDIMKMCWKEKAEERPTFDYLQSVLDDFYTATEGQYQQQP
The target in data set [17] is Tyrosine-protein kinase Lck (Homo sapiens, UniProt P06239). The data set can be described thus: Inhibition of LCK.
Sequence of Tyrosine-protein kinase Lck (P06239 whole entry): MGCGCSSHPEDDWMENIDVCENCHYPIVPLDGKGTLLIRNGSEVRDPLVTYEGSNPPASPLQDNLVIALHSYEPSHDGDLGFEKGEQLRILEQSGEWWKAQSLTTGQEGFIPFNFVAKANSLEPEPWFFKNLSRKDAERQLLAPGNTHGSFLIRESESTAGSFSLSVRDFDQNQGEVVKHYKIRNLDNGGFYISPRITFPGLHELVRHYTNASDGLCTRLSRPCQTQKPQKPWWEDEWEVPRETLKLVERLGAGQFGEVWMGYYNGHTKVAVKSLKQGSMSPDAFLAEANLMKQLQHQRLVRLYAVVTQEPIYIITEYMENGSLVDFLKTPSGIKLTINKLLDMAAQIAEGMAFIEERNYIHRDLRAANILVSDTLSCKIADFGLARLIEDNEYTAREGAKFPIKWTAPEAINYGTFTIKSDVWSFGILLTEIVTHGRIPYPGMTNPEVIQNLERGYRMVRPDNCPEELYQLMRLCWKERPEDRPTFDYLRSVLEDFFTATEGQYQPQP
A short description of data set [18]: Selectivity for CDK4/Cyclin D1 over CDK2/Cyclin E.
A short description of data set [19]: Selectivity for CDK4/Cyclin D1 over […].

The term IC50 denotes the concentration that gives 50% inhibition. Broadly, the half-life is how long it takes for the measured level to halve.

Sequence of Cyclin-dependent kinase 1/cyclin B1 (Homo sapiens, UniProt P06493+P14635) (P06493 whole entry): as the sequence (P06493 whole entry) above
Sequence of Cyclin-dependent kinase 1/cyclin B1 (Homo sapiens, UniProt P06493+P14635) (P14635 whole entry): as the sequence (P14635 whole entry, further chain) above
Sequence of Cyclin-dependent kinase 4/cyclin D1 (Homo sapiens, UniProt P11802) (P11802 whole entry): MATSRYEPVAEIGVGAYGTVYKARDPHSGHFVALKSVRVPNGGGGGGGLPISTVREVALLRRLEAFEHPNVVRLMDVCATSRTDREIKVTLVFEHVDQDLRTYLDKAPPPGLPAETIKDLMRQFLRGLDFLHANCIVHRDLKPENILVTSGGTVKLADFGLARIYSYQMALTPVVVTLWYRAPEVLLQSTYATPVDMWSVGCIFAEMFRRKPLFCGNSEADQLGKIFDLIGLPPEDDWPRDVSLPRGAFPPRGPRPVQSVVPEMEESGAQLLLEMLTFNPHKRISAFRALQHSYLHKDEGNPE
Sequence of Cyclin-dependent kinase 4/cyclin D1 (Homo sapiens, UniProt P11802) (P24385 whole entry, further chain): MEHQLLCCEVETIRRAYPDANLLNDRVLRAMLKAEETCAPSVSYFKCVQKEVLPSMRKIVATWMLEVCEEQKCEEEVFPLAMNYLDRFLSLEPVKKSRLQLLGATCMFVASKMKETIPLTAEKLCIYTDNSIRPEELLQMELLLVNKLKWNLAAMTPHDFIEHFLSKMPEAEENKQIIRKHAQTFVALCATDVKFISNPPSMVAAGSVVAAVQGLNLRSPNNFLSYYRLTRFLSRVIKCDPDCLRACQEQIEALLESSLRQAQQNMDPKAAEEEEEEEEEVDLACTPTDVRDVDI
Sequence of Cyclin-dependent kinase 4/cyclin D1 (Homo sapiens, UniProt P11802+P24385) (P11802 whole entry): as the sequence (P11802 whole entry) above
Sequence of Cyclin-dependent kinase 4/cyclin D1 (Homo sapiens, UniProt P11802+P24385) (P24385 whole entry): as the sequence (P24385 whole entry, further chain) above
Sequence of Protein kinase C theta type (Q04759 whole entry): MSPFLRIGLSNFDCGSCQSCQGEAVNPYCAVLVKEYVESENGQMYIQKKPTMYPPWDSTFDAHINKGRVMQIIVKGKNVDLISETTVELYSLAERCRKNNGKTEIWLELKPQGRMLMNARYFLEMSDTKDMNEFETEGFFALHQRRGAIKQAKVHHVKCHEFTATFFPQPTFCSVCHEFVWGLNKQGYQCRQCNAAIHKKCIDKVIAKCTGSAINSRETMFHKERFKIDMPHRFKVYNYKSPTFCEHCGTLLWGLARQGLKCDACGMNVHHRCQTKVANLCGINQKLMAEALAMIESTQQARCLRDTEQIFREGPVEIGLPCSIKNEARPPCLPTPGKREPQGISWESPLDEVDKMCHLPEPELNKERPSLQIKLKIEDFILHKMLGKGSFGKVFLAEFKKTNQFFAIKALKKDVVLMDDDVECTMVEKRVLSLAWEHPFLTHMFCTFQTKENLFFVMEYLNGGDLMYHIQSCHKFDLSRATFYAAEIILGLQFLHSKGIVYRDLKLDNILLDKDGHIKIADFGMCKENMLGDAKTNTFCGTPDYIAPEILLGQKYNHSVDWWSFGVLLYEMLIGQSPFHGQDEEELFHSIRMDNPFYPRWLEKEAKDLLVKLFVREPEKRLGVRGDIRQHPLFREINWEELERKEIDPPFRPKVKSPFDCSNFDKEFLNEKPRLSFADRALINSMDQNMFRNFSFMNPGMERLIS
Description for HCT-116: Cytotoxicity against human HCT116 cells after 3 days by SRB assay
Description for MCF7: Cytotoxicity against human MCF7 cells after 3 days by SRB assay

Take `CCCOc1ccc(CN/C=C2\C(=O)NC(=O)c3ccc(Br)cc32)cc1O`: the IC50 in [1] was 34500 nM.
Turning to `COc1ccc(CN/C=C2\C(=O)NC(=O)c3ccc(Cl)cc32)cc1O`, the IC50 in data set [2] and in data set [1] was less than 50000 nM throughout.
Turning to `O=C1NC(=O)c2ccc(Br)cc2/C1=C/NCc1cc[nH]c(=O)c1`, in data set [3], the concentration for half-maximal inhibition (IC50) is greater than 50000 nM.
Take `Nc1ccc(CN/C=C2\C(=O)NC(=O)c3ccc(Br)cc32)cc1O`: the IC50 in data set [2] is less than 50000 nM.
For the compound `COc1coc(CN/C=C2\C(=O)NC(=O)c3ccc(Br)cc32)cc1=O`, the IC50 in data set [3] was greater than 50000 nM; in data set [1], 16900 nM; in [4] it was 1300 nM.
On to `O=C1NC(=O)c2ccc(Br)cc2/C1=C/NCc1ccc(O)c(O)c1`, for which the IC50 was less than 50000 nM in data set [2], less than 50000 nM in data set [1] and 40 nM in [4].
Regarding `O=C1NC(=O)c2ccc(I)cc2/C1=C/NCc1ccc(-c2cccnc2)c(O)c1`, the IC50 in the data set with HCT-116 is 440 nM; in data set [3], greater than 50000 nM; in data set [4] it was 10 nM; in the data set with MCF7, 1100 nM.
As for `COc1ccc(CN/C=C2\C(=O)NC(=O)c3ccc(-c4ccoc4)cc32)cc1O`, the IC50 in data set [1] came to 1100 nM; in data set [4], 2 nM.
Consider `COc1ccc(CN/C=C2\C(=O)NC(=O)c3ccc(I)cc32)cc1O`, for which the IC50 in the data set on HCT-116 turned out to be 2000 nM; in the data set with MCF7, 3700 nM. The half-life in data set [5] was determined as 18 min; in data set [6], 6 min.
`COc1cc(CN/C=C2\C(=O)NC(=O)c3ccc(Br)cc32)cc(O)c1OC`: the IC50 in data set [2] was less than 50000 nM; in data set [1], less than 50000 nM; in data set [4] it was 7 nM.
Regarding `COc1ccc(CN/C=C2\C(=O)NC(=O)c3ccc(-c4ccccc4)cc32)cc1O`, the IC50 came to 34700 nM in data set [3], 25900 nM in data set [1] and 10 nM in data set [4].
For `O=C1NC(=O)c2ccc(I)cc2/C1=C/NCc1cc(O)c(-c2ccoc2)cn1`, the IC50 in the data set on HCT-116 worked out at 550 nM; in the data set with MCF7, 2700 nM. Further, the half-life was greater than 30 min in data set [5] and 22 min in [6].
As for `COc1ccc(CN/C=C2\C(=O)NC(=O)c3ccc(F)cc32)cc1O`, the IC50 in [2] was less than 50000 nM; in data set [1], 6600 nM.
The corresponding values for `O=C1NC(=O)c2ccccc2/C1=C/NCc1cccc(O)c1` are less than 50000 nM and 16900 nM.
As to `O=C1NC(=O)c2ccc(I)cc2/C1=C/NCc1ccc(-c2ccccn2)c(O)c1`, the IC50 in the data set with HCT-116 is 250 nM; in data set [3], greater than 50000 nM; in data set [1] it was greater than 50000 nM; in data set [4], 19300 nM; in the data set on MCF7, 540 nM.
In the case of `O=C1NC(=O)c2ccc(C3CCCC3)cc2/C1=C/NCc1cc(O)c(-c2ccoc2)cn1`, the concentration for half-maximal inhibition (IC50) was 810 nM in the data set on HCT-116, 3100 nM in data set [3], less than 5 nM in [4] and 830 nM in the data set with MCF7.
Regarding `COc1cnc(CN/C=C2\C(=O)NC(=O)c3ccc(I)cc32)nc1O`, the IC50 in the data set with HCT-116 is greater than 50000 nM; in data set [3] it was greater than 50000 nM; in data set [1], greater than 50000 nM; in data set [4], 440 nM; in the data set on MCF7 it was greater than 50000 nM.
`O=C1NC(=O)c2ccccc2/C1=C/NCc1ccc(O)cc1`: the IC50 was 17300 nM in data set [1] and less than 50000 nM in [7].
With `CCCOc1cnc(CN/C=C2\C(=O)NC(=O)c3ccc(I)cc32)cc1O`, the IC50 in the data set with HCT-116 stood at 730 nM; in [3], 25300 nM; in data set [4], 30 nM; in the data set with MCF7, 880 nM. Moreover, the half-life in data set [5] and in [6] was greater than 30 min throughout.
On to `CCCOc1ccc(CN/C=C2\C(=O)NC(=O)c3ccc(I)cc32)cc1O`, for which the IC50 was 650 nM with HCT-116; greater than 50000 nM in [3]; 2600 nM in data set [1]; 20 nM in [4]; 1800 nM with MCF7. Also, the half-life was greater than 30 min in [5] and 15 min in data set [6].
For the compound `CCCOc1cnc(CN/C=C2\C(=O)NC(=O)c3ccc(C4CCCC4)cc32)cc1O`, the IC50 in the data set with HCT-116 was 150 nM; in [3] it was 3100 nM; in data set [4], less than 5 nM; in the data set on MCF7 it was 300 nM.
Take `O=C1NC(=O)c2ccc(I)cc2/C1=C/NCc1ccc(-c2ccccc2)c(O)c1`: the IC50 in the data set with HCT-116 came to 420 nM; in the data set on MCF7, 880 nM.
Regarding `O=C1NC(=O)c2ccc(I)cc2/C1=C/NCc1ccc(-c2ccoc2)c(O)c1`, the IC50 in data set [8] was 18000 nM; in data set [3], 24400 nM; in data set [9], greater than 30000 nM; in data set [10], greater than 4000 nM; in data set [11], 1700 nM; in data set [12], 19000 nM. The IC50 in data set [4] was 60 nM; in data set [13], 25900 nM; in [14] it was 10200 nM; in data set [15], greater than 30000 nM; in data set [16], 8500 nM; in data set [17], greater than 30000 nM. Moreover, the half-life in data set [5] is greater than 30 min; in data set [6] it was 18 min.
Turning to `O=C1NC(=O)c2ccc(I)cc2/C1=C/NCc1ccc(-c2ccncc2)c(O)c1`, the concentration for half-maximal inhibition (IC50) with HCT-116 was 2300 nM; in data set [3] it was greater than 50000 nM; in data set [1] it was greater than 50000 nM; in data set [4], 8 nM; in the data set on MCF7, 1500 nM.
Take `COc1ccc(C(C)N/C=C2\C(=O)NC(=O)c3ccc(Br)cc32)cc1O` (centres undefined): the IC50 was less than 50000 nM in data set [2], less than 50000 nM in [1] and 370 nM in data set [4].
As for `CC(C)(C)c1ccc2c(c1)/C(=C/NCc1cc(O)c(-c3ccoc3)cn1)C(=O)NC2=O`, the half-inhibitory concentration (IC50) with HCT-116 is 480 nM; in [3], 9500 nM; in data set [4] it was 20 nM; with MCF7, 1400 nM.
As to `CCCOc1ccc(CN/C=C2\C(=O)NC(=O)c3ccc(I)cc32)nc1O`, the IC50 in the data set with HCT-116 amounted to 670 nM; in [3] it was 10100 nM; in data set [1], 700 nM; in data set [4], 20 nM; with MCF7, 1400 nM. Moreover, the half-life in data set [5] and in data set [6] was greater than 30 min throughout.
For `O=C1NC(=O)c2ccccc2/C1=C/NCCc1ccc(O)c(O)c1`, the IC50 in data set [4] was 16200 nM.
Regarding `COc1ccc(CN/C=C2\C(=O)NC(=O)c3ccc(-c4ccsc4)cc32)cc1O`, the Ratio IC50 in [18] came to 9000; in data set [19] it was 11000.
On to `Cc1ccc(CN/C=C2\C(=O)NC(=O)c3ccc(I)cc32)cc1O`, for which the IC50 in the data set with HCT-116 was found to be 6700 nM; in [1], 13600 nM; in data set [4] it was 30 nM; in the data set on MCF7, 8200 nM.
In the case of `COc1ccc(CN/C=C2\C(=O)NC(=O)c3ccc(Br)cc32)cc1O`, the Ratio IC50 in [18] and in data set [19] was 1600 throughout. Further, the IC50 was less than 50000 nM in data set [2], less than 50000 nM in [1] and 30 nM in data set [4].
As to `COc1ccc(CN(C)/C=C2\C(=O)NC(=O)c3ccc(Br)cc32)cc1O`, in data set [2], the IC50 is less than 50000 nM.
On to `COc1ccc(CN/C=C2\C(=O)NC(=O)c3ccc(-n4cccc4)cc32)cc1O`, for which the IC50 in [1] is 3100 nM.
For the compound `O=C1NC(=O)c2ccccc2/C1=C/NCc1ccc(O)c(O)c1`, the IC50 in data set [3] was 36600 nM; in [4], 1200 nM.
Turning to `O=C1NC(=O)c2ccc(I)cc2/C1=C/NCc1ccc(-c2ccco2)c(O)c1`, the IC50 with HCT-116 was 380 nM; in data set [3], greater than 50000 nM; in data set [4], 100 nM; with MCF7, 700 nM.
The corresponding values for `CCCOc1cnc(CN/C=C2\C(=O)NC(=O)c3ccc(C(C)(C)C)cc32)cc1O` are 430 nM, 6200 nM, 20 nM and 700 nM.
For the compound `COCCOc1ccc(CN/C=C2\C(=O)NC(=O)c3ccc(Br)cc32)cc1O`, the IC50 in data set [2] was less than 50000 nM; in data set [1] it was less than 50000 nM; in data set [4], 40 nM.
With `COc1cnc(CN/C=C2\C(=O)NC(=O)c3ccc(I)cc32)cc1O`, the IC50 with HCT-116 was determined as 1300 nM; in data set [3] it was 14700 nM; in [4] it was 10 nM; in the data set on MCF7 it was 1000 nM. Besides, the half-life in data set [5] and in data set [6] was greater than 30 min throughout.
Consider `CC(C)(C)c1ccc2c(c1)/C(=C/NCc1cc(O)c(-c3ccccc3)cn1)C(=O)NC2=O`, for which the half-maximal inhibitory concentration (IC50) in the data set on HCT-116 turned out to be 150 nM; in data set [4], 30 nM; with MCF7, 700 nM.
Turning to `COc1ccc(CN/C=C2\C(=O)NC(=O)c3ccccc32)cc1O`, the IC50 in data set [3] was found to be 48700 nM; in [1], 6900 nM; in data set [4], 190 nM.
For the compound `CCOc1ccc(CN/C=C2\C(=O)NC(=O)c3ccc(Br)cc32)cc1O`, the IC50 in data set [2] was less than 50000 nM.
With `O=C1NC(=O)c2ccccc2/C1=C/Nc1ccc(O)c(O)c1`, the IC50 in data set [4] came out at 7800 nM.
